Data on 21 molecules can be found in patent US20250241878A1, “TYROSINE AND RESVERATROL DERIVATIVES AS NOVEL MODULATORS OF CELLULAR SERINE ADP-RIBOSYLATION” (UNIVERSITY OF SOUTH CAROLINA, priority 2022, published 2025).

Entries after “also recorded” stand apart in the source; their conditions may differ. Where two headings read alike, the source gives them in different places. Where a SMILES comes first, the peptide text is derived from it. The star is where a group is joined. Cbz = O=C(OCc1ccccc1)*

For series [1], the system named is rat cortical neurons. The experiment in a line: MTT cell viability assay. The note with it: for effect on cis-RSV-mediated neuroprotective effects: combination with cis-RSV, NMDA toxicity; for neurotoxicity (viability): D-amino acid alone; for effect on trans-RSV-mediated neurotoxicity: combination with trans-RSV.
Experimental: (§4) Rat cortical neurons (DIV9-11) were exposed to different treatments (NMDA, ETO, H2O2, MPP+) after seeding 20,000 cells/well in 96-well plates. Cell viability was then assessed at 48 hr after the initial exposure to NMDA. 3-[4,5-dimethylthiazole-2-yl]-2,5-diphenyltetrazolium bromide (MTT) assays were used to assess change in cell viability. […] Cultured rat cortical neurons were incubated with MTT (0.5 mg/mL). In the MTT assay, after 2 hr incubation, the insoluble purple product formazan resulting from the reduction of MTT by NAD (P) H-dependent oxidoreductases present in cells with viable mitochondria was solubilized in dimethyl sulfoxide at room temperature, under agitation, and protected from light. The percentage of MTT reduced as measured by the difference between the absorbances at 570 nm read in a spectrophotometer (SpectraMax® 190R Molecular Devices, UK).
The test system of series [2] is rat cortical neurons.
Experimental: as §4
The test system of series [3] is histone H3-Ser10-ADP-ribosylation. Kind of series: Histone H3 serine-ADP-ribosylation immunoblot in cortical neurons. Type of series: cell-based, rat. The note with it: for histone H3 serine-ADP-ribosylation: compound alone; for histone serine-ADP-ribosylation: picomolar concentration (5-50 pM). The method, then:
FIG. 5B presents representative immunoblots and quantification of histone H3-Ser10-ADP-ribosylation levels in cortical neurons (DIV9) using anti-H3-Ser10-ADPR antibody after treatment with D-tyrosine (2.5 and 5 mM).
(§1) Cultured neurons (DIV 9-10) were washed once with cold 1×PBS and lysed in cell lysis buffer (20 mM Tris-HCl (pH 7.5), 150 mM NaCl, 1 mM Na2EDTA, 1 mM EGTA, 1% Triton™, 2.5 mM sodium pyrophosphate, 1 mM beta-glycerophosphate, 1 mM Na3VO4, 1 μg/ml leupeptin supplemented with protease inhibitor). The lysates were centrifuged at 10,000 RPM for 15 mins at 4° C. to separate the chromatin-bound and soluble fractions. Lysates were quantified using Bio-Rad™ Protein Assay and equal amounts of protein were loaded onto a 4 to 12% gradient gel (Invitrogen™ NuPAGE™). Protein was transferred from the gel to 0.2 μm NC membranes at 25 V for 10 mins using transfer stacks (iBlot™ 2-Invitrogen™) and blocked with 5% non-fat milk in TBST (10 mM Tris-HCl pH 8.0, 150 mM NaCl, 0.01% Tween-20) for 1 hr before application of primary antibodies. Primary and secondary antibodies were incubated overnight at 4° C. and for 1 hr at room temperature, respectively. Immobilon® ECL Ultra Western HRP Substrate (WBULS0500, Millipore™) and a luminescent image analyzer (ChemiDoc™ Imaging System, Bio-Rad™) were used to detect proteins. Quantification of western blots was done using ImageJ (Version 1.53c).

A further series concerns cleaved caspase-3. The experiment in a line: Cleaved caspase-3 immunoblot. To be noted: compound alone; trans-RSV at high concentration. Type of series: cell-based, rat. The method, then: FIG. 17E presents immunoblots showing the levels of cleaved caspase-3 in rat cortical neurons (DIV 9/10) after the treatment with D-Tyr (2 mM) for 16 hr.
In another series the test system is TyrRS. The class given is cell-based, rat. The note with it: for levels of neuronal TyrRS: neurotoxic agent alone, after 4 hr of treatment; for neuronal TyrRS levels: picomolar concentration (5-50 pM). As to the method: (§2) Primary cortical neurons were dissected from E18 Sprague Dawley rat pups in Hibernate E (BrainBits®) and dissociated using the Neural Tissue Dissociation kit (Miltenyi Biotec). Minced cortices were incubated in a pre-warmed enzyme mix at 37° C. for 15 min; tissues were then triturated and strained using a 40 μm cell strainer. After washing and centrifugation, neurons were seeded in 50 μg/ml poly-D-Lysine (Sigma-Aldrich) coated tissue culture plates. NBActive-1 medium (BrainBits®) supplemented with 100 U/ml of Penicillin-Streptomycin (Life Technologies™), 2 mM L-Glutamine (Life Technologies™), and 1×N21 supplement (R&D Systems™) was used as culture medium. For preparation of culture medium containing reduced tyrosine, the components of NBActive-1 medium were altered to combined with a reduced concentration of tyrosine, as mentioned in Table 1, and was supplemented with 100 U/ml of Penicillin-Streptomycin (Life Technologies™), 2 mM L-Glutamine (Life Technologies™), and 1×N21 supplement (R&D Systems™) to obtained culture medium with reduced tyrosine. Control (non-targeting), TyrRS, and PARP1 siRNAs were obtained from Invitrogen™ (#AM4635, s443, and s130207, respectively). Rat cortical neurons at 5 DIV were transfected with 75 nM control or TyrRS siRNA using DharmaFECT™ 3 Transfection Reagent. A second transfection was done two days later using 75 nM of TyrRS siRNA, followed by cell collection or assays after another 48 hr. For PARP1 siRNA, neurons at 7 DIV were transfected with 75 nM siRNA for both control and PARP1 siRNA.
as §1
Cultured cortical neurons (DIV 9-10) were fixed in 4% formaldehyde for 15 min, followed by permeabilization and blocking for 30 min in 5% BSA (PBS) and 0.1% Tween™ 20 at room temperature. Incubation with primary antibodies was done at 4° C. overnight. The names and dilutions of the primary antibodies used for IF are described in Table 3. Secondary antibodies were incubated for 1 hr at room temperature. Secondary antibodies used were Alexa Fluor® 647 (anti-chicken), Alexa Fluor® 555 (anti-mouse), Alexa Fluor® 488 (anti-rabbit) from Invitrogen™ at 1:1000 dilution. Coverslips were then mounted using DAPI (4′,6-diamidino-2-phenylindole)-supplemented mounting medium, ProLong™ Gold Antifade (Invitrogen™) and imaged with Leica DMI6000 epifluorescent microscope using oil immersion 63×/NA 1.4 objective. The quantification for total protein levels in neurons was done using ImageJ (version 1.53c), and imaging parameters were matched for exposure, gain, and offset.
(§3) The various compounds used for treatments and their stock concentrations in Table 4.

In a further series the test system is PheRSα/β. Kind of series: PheRSα/β protein levels in cortical neurons (Western blot). Type of series: cell-based, rat. To be noted: for PheRSβ levels: compound alone. As to the method:
as §2, §1, §3

Another series has as its system HPF1. Kind of series: HPF1 levels immunoblot in cortical neurons. The class given is cell-based, rat. The note with it: compound alone. As to the method:
FIG. 5A presents immunoblots showing the protein levels of HPF1 in rat cortical neurons (DIV9-10) after treatment with Tyr ([…]) for up to 8 hr.
as §1

The subject of a further series is eEF2. The experiment in a line: eEF2 phosphorylation (p-eEF2) Western blot in cortical neurons. Type of series: cell-based, rat. To be noted: compound alone. As to the method:
as §2, §1

The subject of another series is monosomes. The experiment in a line: Monosome formation in cortical neurons. The class given is cell-based, rat.
The next series relates to neuronal chromatin. The experiment in a line: Chromatin fraction immunoblots of cortical neurons. Type of series: cell-based, rat. To be noted: picomolar concentration. As to the method:
as §1

Where [4] appears, read: compound alone, rat cortical neurons.

With `CN(C)Cc1ccc(-c2nc3cccc4c3n2CCNC4=O)cc1` [AG-14361], the “effect on cis-RSV-mediated neuroprotective effects” value in the series on rat cortical neurons [1] is given as “did not affect cis-RSV-mediated neuroprotective effects”.

Take `N[C@H](Cc1ccccc1)C(=O)O` [D-Phe]: the “neurotoxicity (viability)” value with rat cortical neurons [1] is given as “had no significant effects”.

With `N[C@H](Cc1c[nH]c2ccccc12)C(=O)O` [D-Trp], in the series with rat cortical neurons [2], the “neurotoxicity (viability)” value is reported as “had no significant effects”.

With `N[C@H](Cc1ccc(O)cc1)C(=O)O` [D-Tyr, D-tyrosine], the “histone H3 serine-ADP-ribosylation” value in series [3] was “potent inhibitor of TyrRS/PARP1/HPF1-dependent serine-ADP-ribosylation and DNA repair”. Also, the “levels of cleaved caspase-3” value with cleaved caspase-3 was “increased the levels of cleaved caspase-3”. The “neurotoxicity (viability)” value with rat cortical neurons [1] is recorded as “induced neurotoxicity”.

`NCCc1ccc(O)c(O)c1` [DA, dopamine]: the “histone H3 serine-ADP-ribosylation” value in series [3] was “stimulated histone H3 serine-ADP-ribosylation”. Moreover, the TyrRS protein levels entry in the series with TyrRS is “increased the protein levels of TyrRS”. Moreover, in the series on rat cortical neurons [1], the “effect on trans-RSV-mediated neurotoxicity” value was “protected against neurotoxic effects of trans-RSV”.

For `NCCc1cc(O)c(O)cc1O` [Formula 6-OHDA, 6-hydroxydopamine], the TyrRS protein levels result in the series with TyrRS (setting [4]) is recorded as “decreased the levels of TyrRS”. Moreover, the PheRSβ levels entry in the series on PheRSα/β is “decreased the levels of TyrRS and PheRSβ”.

As to `O=C(COc1ccc(Cl)cc1)NC1CCC(NC(=O)COc2ccc(Cl)cc2)CC1` (stereo not shown) [ISRIB], the “histone H3 serine-ADP-ribosylation” value in series [3] was “induction of histone H3 serine-ADP-ribosylation”. The HPF1 levels result in the series on HPF1 is recorded as “increased HPF1 levels”. Also, the TyrRS protein levels result with TyrRS (ISRIB 5-50 nM) was “increased the protein levels of TyrRS”. In the series with TyrRS (combination with trans-RSV), the “effect on trans-RSV mediated depletion of TyrRS” value is “rescued trans-RSV mediated depletion of TyrRS”. For the same molecule, the TyrRS levels result with TyrRS (higher doses of ISRIB (250-500 nM)) is given as “decreased TyrRS levels”. Besides, in the series with eEF2, the “eEF2 phosphorylation (p-eEF2)” value was “stimulated the dephosphorylation of eEF2”. Further, in the series with PheRSα/β (ISRIB 5-50 nM), the PheRSβ protein levels result was “increased the protein levels of TyrRS and PheRSβ”. In addition, in the series on rat cortical neurons [1], the “effect on trans-RSV-mediated neurotoxicity” value is “protected against neurotoxic effects of trans-RSV”.

Turning to `N[C@@H](Cc1ccc(O)c(O)c1)C(=O)O` [L-DOPA, 3,4-dihydroxy-L-phenylalanine], the TyrRS protein levels result in the series with TyrRS (setting [4]) is reported as “decreased the levels of TyrRS”. The PheRSβ levels entry with PheRSα/β is “decreased the levels of TyrRS and PheRSβ”.

Turning to `CC(C)C[C@@H](C=O)NC(=O)[C@H](CC(C)C)NC(=O)[C@H](CC(C)C)NC(=O)OCc1ccccc1` [MG132] (Cbz-Leu-Leu-Leu-aldehyde), the TyrRS protein levels entry with TyrRS (setting [4]) was “increased the levels of TyrRS”.

As to `C[n+]1ccc(-c2ccccc2)cc1` [MPP+, 1-methyl-4-phenylpyridinium], in the series with TyrRS, the “levels of neuronal TyrRS” value was “decreased the levels of neuronal TyrRS”.

Regarding `CN[C@H](CC(=O)O)C(=O)O` [NMDA, N-Methyl-D-aspartate], the “levels of neuronal TyrRS” value with TyrRS is “decreased the levels of neuronal TyrRS”.

In the case of `CO/C1=C\C(C)=C\[C@@H](C)[C@@H](O)[C@@H](C)C/C(C)=C/C=C/[C@H](OC)[C@@H]([C@@H](C)[C@@H](O)[C@H](C)[C@@]2(O)C[C@@H](O)[C@H](C)[C@@H](C(C)C)O2)OC1=O` [bafilomycin], the TyrRS protein levels result with TyrRS (setting [4]) is “increased the levels of TyrRS”.

On to `C[C@@H]1C[C@@H]([C@H](O)CC2CC(=O)NC(=O)C2)C(=O)[C@@H](C)C1` [cycloheximide], for which the “effect on cis-RSV-mediated increase in TyrRS level” value with TyrRS (combination with cis-RSV) is given as “abrogated”. For the same molecule, the TyrRS protein levels entry in the series with TyrRS (setting [4]) is reported as “decreased TyrRS levels”.

Regarding `CCn1c(=O)c2cc(C(N)=O)c(N)nc2n(C2CC2)c1=O` [eEF2K inhibitor], the “effect on trans-RSV-mediated neurotoxicity” value with rat cortical neurons [1] is on record as “protected against neurotoxic effects of trans-RSV”.

Consider `Cc1c(O)cccc1C(=O)N[C@@H](CSc1ccccc1)[C@H](O)CN1C[C@H]2CCCC[C@H]2C[C@H]1C(=O)NC(C)(C)C` [nelfinavir], for which the TyrRS protein levels result in the series with TyrRS (setting [4]) is given as “depleted neuronal TyrRS”.

As to `O=C(c1cc(Cc2n[nH]c(=O)c3ccccc23)ccc1F)N1CCN(C(=O)C2CC2)CC1` [olaparib], in the series on rat cortical neurons [1], the “effect on cis-RSV-mediated neuroprotective effects” value was “mitigated the neuroprotective effects of cis-RSV” and the “effect on trans-RSV-mediated neurotoxicity” value is given as “did not affect trans-RSV-mediated neurotoxicity”.

Regarding `N[C@@H](Cc1ccccc1)C(=O)O` [phenylalanine, L-phenylalanine], the TyrRS protein levels result with TyrRS (setting [4]) is “decreased the levels of TyrRS”. Also, in the series on PheRSα/β, the PheRSβ levels result is “decreased the levels of TyrRS and PheRSβ”.

In the case of `Cn1ncnc1[C@H]1c2n[nH]c(=O)c3cc(F)cc(c23)N[C@@H]1c1ccc(F)cc1` [talazoparib], the “effect on amyloid beta 42-induced monosome formation” value in the series with monosomes (combination with amyloid beta 42 (10 picomolar)) is on record as “lost”.

Consider “amyloid beta 40: amyloid beta 40 peptide at picomolar concentration”, for which the “histone serine-ADP-ribosylation” value in [3] is “activation of histone serine-ADP-ribosylation”. In addition, the “neuronal TyrRS levels” value in the series on TyrRS was “stimulation of neuronal TyrRS protein levels”.

Turning to “amyloid beta 42: amyloid beta 42 peptide at physiological picomolar concentration”, the “histone serine-ADP-ribosylation” value in [3] is “activation of histone serine-ADP-ribosylation; also recorded: endogenous stimulator”. In the series on monosomes (picomolar amyloid beta 42 (5-50 pM; 10 picomolar in FIG. 20A)), the monosome formation result is on record as “endogenous stimulator of monosome formation”. Moreover, the “chromatin trapping of auto-PARylated PARP1 with Rad52, DNA polymerase beta, ligase III, TyrRS” value with neuronal chromatin is recorded as “trapping of auto-PARylated PARP1 along with Rad52, DNA polymerase beta, ligase III, TyrRS onto the chromatin”. The “neuronal TyrRS levels” value in the series on TyrRS was “stimulation of neuronal TyrRS protein levels; also recorded: endogenous stimulator”.

B1: BDNF: brain-derived neurotrophic factor (protein, UniProt P23560 19-247, looked up)
Neurotrophic factor BDNF …: APMKEANIRGQGGLAYPGVRTHGTLESVNGPKAGSRGLTSLADTFEHVIEELLDEDQKVRPNEENNKDADLYTSRVMLSSQVPLEPPLLFLLEEYKNYLDAANMSMRVRRHSDPARRGELSVCDSISEWVTAADKKTAVDMSGGTVTVLEKVPVSKGQLKQYFYETKCNPMGYTKEGCRGIDKRHWNSQCRTTQSYVRALTMDSKKRIGWRFIRIDTSCVCTLTIKRGR
As to B1, the “histone H3 serine-ADP-ribosylation” value in [3] is “induction of histone H3 serine-ADP-ribosylation”. In addition, in the series with HPF1, the HPF1 levels result was “increased HPF1 levels”. Also, in the series with TyrRS (setting [4]), the TyrRS protein levels entry is reported as “stimulates the de novo synthesis of neuronal TyrRS”.
